Target: T1, XylA (β-D-xylosidase, LROS_1108) (Furfurilactobacillus rossiae, UniProt A0A0R1REJ8)
T1 construct: gene FD35_GL000933; host Lactococcus lactis subsp. cremoris NZ9000; crude cell extract; from primers N-terminus MKIQNPVL, C-terminus KELPETK; EC 3.2.1.37
Experiment: p-nitrophenol release at […] nm, XylA-containing crude cell extract
Format: biochemical
Conditions: 5 mM pNPX, 50 mM phosphate buffer pH 5.7, 37.5 °C, 10 min

T1 sequence (A0A0R1REJ8 entry or part of it): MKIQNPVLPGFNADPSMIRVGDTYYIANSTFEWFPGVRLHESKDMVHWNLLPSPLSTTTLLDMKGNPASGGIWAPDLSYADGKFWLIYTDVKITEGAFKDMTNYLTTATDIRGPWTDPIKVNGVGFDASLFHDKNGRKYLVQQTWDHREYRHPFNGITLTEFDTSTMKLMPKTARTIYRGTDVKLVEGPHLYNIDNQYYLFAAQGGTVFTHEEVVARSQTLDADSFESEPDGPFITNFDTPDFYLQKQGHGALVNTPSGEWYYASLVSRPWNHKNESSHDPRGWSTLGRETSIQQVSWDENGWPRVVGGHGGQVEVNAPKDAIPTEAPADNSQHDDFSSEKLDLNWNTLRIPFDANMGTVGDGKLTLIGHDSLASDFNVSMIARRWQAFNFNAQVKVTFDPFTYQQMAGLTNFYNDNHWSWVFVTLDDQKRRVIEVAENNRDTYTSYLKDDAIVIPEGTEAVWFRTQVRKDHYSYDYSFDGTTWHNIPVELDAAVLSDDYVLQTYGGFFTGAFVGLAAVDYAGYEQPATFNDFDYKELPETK

Q: For O=[N+]([O-])c1ccc(O[C@@H]2OC[C@@H](O)[C@H](O)[C@H]2O)cc1 [p-nitrophenyl-β-D-xylopyranoside], which “p-nitrophenol release at 410 nm, XylA-containing crude cell extract” value is on record?
A: The value was “amount of p-nitrophenol (pNP) released from p-nitrophenyl-β-D-xylopyranoside (pNPX) substrate”.
